Earlier results as cited in patent US7702465B2 (priority 2002, dated 2010).

How the values were obtained:
[1] = target: HLA A*0201 (Homo sapiens, UniProt P04439, /I218V/L300P/L318F/N151K/N90K/P208A/P217A/Q86G/Q94H/R138H/R169H/T345S); conditions: binding to HLA A*0201; nonameric peptides from HPV E6 and E7; literature data of Rudolf et al. (2001)
[2] = target: HLA A*0201 (Homo sapiens, UniProt P04439, D140Y/D185E/D98H/E176V/E277Q/G131W/G231S/I119V/I121R/I166T/I218V/L300P/L318F/N151K/N90K/P208A/P217A/Q86G/Q94H/R138H/R169H/T345S); conditions: binding peptides = the 15 of 247 with IC50 3 to 943 nM (Rudolf et al. 2001)

For FAFKDLFVV, the IC50 [1] is listed as 3 nM.
In the case of FKDLFVVYR, the IC50 [1] is given as 500 nM.
In the case of LFLNTLSFV, the “classification as binder to HLA A*0201” value [2] is listed as “binding peptides”.
In the case of LYNLLIRCL, the “classification as binder to HLA A*0201” value [2] is listed as “binding peptides”.
